Read-outs that look alike come from different tables or passages of the source.
Experiments:
Akt [1] = biological target: T1, Akt (Homo sapiens, UniProt P31749); set-up: many cells; H2O2-treated B cells; details: Cell: Many; cited from earlier work
Akt [2] = biological target: T1, Akt; details: Cell: HL-60 K562; cited from earlier work
Akt [3] = assay: Akt kinase assay (immunoprecipitated Akt, GSK-3 fusion protein substrate) in OASF; assay type: cell-based, human; details: TNF-α 10 ng/ml
Protocol: Active Akt phosphorylates GSK-3 at […].
Akt kinase assay of RA synovial fibroblasts is performed using Akt kinase assay kit according to the protocol provided by manufacturer (New England Biolabs, Beverly, Mass.). Briefly, three hundreds micrograms of total proteins from RA synovial fibroblasts are added into Akt antibody coated beads, incubated at 4° C. for 3 hours followed by washing. Phosphorylation of GSK-3 is used as an indicator of phosphorylated Akt, since Akt negatively regulates GSK-3a/b kinase activity via phosphorylation of GSK-3 at […]. After the kinase reaction, the reaction mixture is electrophoresed on a 12% SDS-PAGE gel and western blotted. The blots are probed with an anti-phospho-GSK-3a/b (Ser219) antibody (rabbit polyclonal IgG, affinity purified).

phosphorylated Akt = assay: Western blot of phosphorylated-Akt in RASF lysates; details: TNF-α 10 ng/ml alone
Protocol: The levels of phosphorylated-Akt are determined by Western blot analysis of lysates from RASF and OASF cell lines.
To determine the optimal amount of AdAkt-DN required to inhibit Akt phosphorylation, RASF is transfected with either 50 pfu/cell of AdGFP or with 5 pfu/cell or with 50 pfu/cell of AdAkt-DN respectively for 18 hr. The cells are then stimulated with TNFα (10 ng/ml) for 18 hr.
For evaluation of the phosphorylated form of Akt, the synovial cells are washed twice with ice-cold PBS followed by incubation with 200 μl of cell lysis buffer (20 mmol/L Tris [pH 7.4], 150 mmol/L NaCl, 1 mmol/L EDTA, 1 mmol/L EGTA, 1% Triton, 2.5 mmol/L sodium pyrophosphate, 1 mmol/L β-glycerophosphate, 1 mmol/L Na3VO4, 1 μg/mL leupeptin, and 1 mmol/L PMSF) for 5 min on ice. The cells are then harvested by scraping and sonicated using a Branson Sonicator (3×5 seconds, output control 2, duty cycle 100%) on ice. After centrifugation for 10 min at 20,000 g at 4° C., the protein concentration of the supernatant is determined using the Bio-Rad protein assay kit (Bio-Rad, Hercules, Calif.). […] Phosphorylated Akt is detected using the PhosphoPlus Akt antibody kit (New England Biolabs, Beverly, Mass.).

[4] = test system: phosphorylated Akt (Thr308); assay: Immunohistochemical staining of phosphorylated Akt in primary RASF; details: TNF-α 10 ng/ml alone vs PBS, 18 hours
Protocol: To determine if this TNF-α survival signal involves a PI 3-kinase dependent mechanism, RASF and OASF are treated with TNF-α (10 ng/ml), using PBS as a control, in the presence and absence of the PI 3-kinase inhibitor, wortmannin (50 nM). After 18 hours, the synovial fibroblasts are stained using an antibody specific for phosphorylated-Akt.
The in-situ expression of phosphorylated-Akt is determined by staining fixed cells with an antibody specific for Thr308 phosphorylated Akt (New England Biolabs, Beverly, Mass.). Quenching of endogenous peroxidase is performed by incubating tissue sections with 3% H2O2 at RT for 10 min in a humidified chamber. After washing with PBS, tissue sections are incubated with 0.1% trypsin at 37° C. for 10 min to reveal fixed antigen epitopes. Tissue sections are then treated with denaturing solution at 20° C. for 30 min and blocking solution at RT for 10 min followed by incubation with a horseradish peroxidase (HRP) conjugated antibody specific for phosphorylated-Akt antibody (New England Biolabs, Beverly, Mass.). Slides are incubated with DAB staining kit (DAKO) for color development then counterstained with methyl green. At least 5 areas from each specimen are chosen randomly for assessment of the percentage of Akt-positive cells.

Akt [5] = biological target: T1, Akt; set-up: many cells; H2O2-treated B cells; details: Cell: IL-2 activated T cell; cited from earlier work
[6] = test system: rheumatoid arthritis synovial fibroblasts (RASF); assay: ATPlite-M cytotoxicity assay in RASF; details: wortmannin alone, 18 hours

T1 sequence (P31749 whole entry): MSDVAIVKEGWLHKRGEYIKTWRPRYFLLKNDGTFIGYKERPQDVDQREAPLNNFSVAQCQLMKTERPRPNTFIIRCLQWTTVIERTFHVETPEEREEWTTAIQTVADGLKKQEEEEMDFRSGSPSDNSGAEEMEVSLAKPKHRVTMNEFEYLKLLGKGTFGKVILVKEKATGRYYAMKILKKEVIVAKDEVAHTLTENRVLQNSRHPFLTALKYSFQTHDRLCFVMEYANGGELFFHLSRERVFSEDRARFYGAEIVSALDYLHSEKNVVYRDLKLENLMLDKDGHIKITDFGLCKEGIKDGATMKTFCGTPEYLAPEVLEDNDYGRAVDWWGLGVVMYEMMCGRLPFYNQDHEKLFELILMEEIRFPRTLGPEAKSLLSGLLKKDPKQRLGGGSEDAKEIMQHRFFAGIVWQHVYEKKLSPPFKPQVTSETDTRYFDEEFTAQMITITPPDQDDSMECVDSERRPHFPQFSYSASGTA

Compound: PDGF
- Action (Akt [1]): Activates Akt

Compound: Cc1ccc(NC(=O)c2ccc(CN3CCN(C)CC3)cc2)cc1Nc1nccc(-c2cccnc2)n1 [CGP57148B]
- Action (Akt [2]): Block Akt

Compound: tumor necrosis factor-alpha [TNF-α]
- Akt kinase activity (Akt [3]): did not induce Akt kinase activity
- levels of phosphorylated-Akt (Western blot) (phosphorylated Akt): marked increase
- production of phosphorylated Akt (immunohistochemical staining) [4]: greatly enhanced production of phosphorylated Akt

Compound: C[S+]([O-])c1ccc(-c2nc(-c3ccncc3)c(-c3ccc(F)cc3)[nH]2)cc1 (centres unmarked) [SB 203580]
- Action (Akt [5]): Block Akt

Compound: COC[C@H]1OC(=O)c2coc3c2[C@@]1(C)C1=C(C3=O)[C@@H]2CCC(=O)[C@@]2(C)C[C@H]1OC(C)=O [wortmannin]
- cytotoxicity (ATPlite) [6]: Neither treatment with TNF-α nor wortmannin alone could induce cytotoxicity

Compound: Insulin-like growth factor-1: growth factor known to activate Akt
- Action (Akt [1]): Activates Akt

From patent US20060104951A1, “Akt and regulation of RA synovial fibroblast apoptosis” (priority 2004, published 2006)
